Tests used:
HDAC8 = target: T1, HDAC8 (Homo sapiens, UniProt Q9BY41); assay: fluorometric HDAC activity assay, […]; assay type: biochemical
T1 sequence (Q9BY41 1-377): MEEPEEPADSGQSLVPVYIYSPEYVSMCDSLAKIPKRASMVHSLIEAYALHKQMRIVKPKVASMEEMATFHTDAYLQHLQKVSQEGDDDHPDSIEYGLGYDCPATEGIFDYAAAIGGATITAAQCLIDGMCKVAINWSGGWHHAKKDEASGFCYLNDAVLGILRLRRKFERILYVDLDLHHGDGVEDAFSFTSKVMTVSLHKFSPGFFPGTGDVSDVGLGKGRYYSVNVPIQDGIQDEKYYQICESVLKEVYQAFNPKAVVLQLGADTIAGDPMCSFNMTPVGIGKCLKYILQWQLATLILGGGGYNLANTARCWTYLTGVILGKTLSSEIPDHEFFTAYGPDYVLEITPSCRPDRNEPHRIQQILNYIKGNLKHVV

HDAC1 = HDAC1 (Homo sapiens, UniProt Q13547); assay: […]FTY720-P radioligand binding and displacement on Ni-NTA immobilized HDAC1
Chain of HDAC1 (Q13547 whole entry): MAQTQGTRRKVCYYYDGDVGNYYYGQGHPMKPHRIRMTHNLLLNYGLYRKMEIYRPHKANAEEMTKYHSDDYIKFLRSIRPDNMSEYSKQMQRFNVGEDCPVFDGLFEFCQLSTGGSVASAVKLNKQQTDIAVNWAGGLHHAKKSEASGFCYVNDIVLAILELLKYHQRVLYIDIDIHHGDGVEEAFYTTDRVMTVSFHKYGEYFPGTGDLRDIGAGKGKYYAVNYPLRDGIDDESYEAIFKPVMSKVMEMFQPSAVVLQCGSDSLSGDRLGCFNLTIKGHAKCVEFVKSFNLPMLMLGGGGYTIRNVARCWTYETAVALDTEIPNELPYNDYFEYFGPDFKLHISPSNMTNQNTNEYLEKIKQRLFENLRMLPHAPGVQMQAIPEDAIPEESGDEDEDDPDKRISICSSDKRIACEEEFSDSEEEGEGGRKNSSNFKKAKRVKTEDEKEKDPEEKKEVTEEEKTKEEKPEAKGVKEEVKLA

HDAC2 [1] = target: T2, HDAC2 (Homo sapiens, UniProt Q92769); assay: fluorometric HDAC activity assay, […]; assay type: biochemical
T2 sequence (Q92769 whole entry): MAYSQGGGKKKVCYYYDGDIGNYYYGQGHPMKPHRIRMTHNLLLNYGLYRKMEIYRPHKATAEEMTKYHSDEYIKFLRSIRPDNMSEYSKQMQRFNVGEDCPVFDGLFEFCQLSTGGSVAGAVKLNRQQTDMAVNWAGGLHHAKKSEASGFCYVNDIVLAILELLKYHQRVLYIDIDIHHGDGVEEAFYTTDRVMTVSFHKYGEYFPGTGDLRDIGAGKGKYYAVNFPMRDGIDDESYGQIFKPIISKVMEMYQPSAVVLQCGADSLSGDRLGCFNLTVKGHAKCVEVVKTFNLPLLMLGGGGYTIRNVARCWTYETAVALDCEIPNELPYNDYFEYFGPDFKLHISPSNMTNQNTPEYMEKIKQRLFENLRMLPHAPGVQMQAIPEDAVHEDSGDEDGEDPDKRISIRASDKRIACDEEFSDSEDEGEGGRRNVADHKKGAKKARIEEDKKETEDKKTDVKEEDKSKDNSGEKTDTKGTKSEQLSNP

HDAC3 [2] = target: T3, HDAC3 (Homo sapiens, UniProt O15379); assay: fluorometric HDAC activity assay, […]; assay type: biochemical
T3 sequence (O15379 whole entry): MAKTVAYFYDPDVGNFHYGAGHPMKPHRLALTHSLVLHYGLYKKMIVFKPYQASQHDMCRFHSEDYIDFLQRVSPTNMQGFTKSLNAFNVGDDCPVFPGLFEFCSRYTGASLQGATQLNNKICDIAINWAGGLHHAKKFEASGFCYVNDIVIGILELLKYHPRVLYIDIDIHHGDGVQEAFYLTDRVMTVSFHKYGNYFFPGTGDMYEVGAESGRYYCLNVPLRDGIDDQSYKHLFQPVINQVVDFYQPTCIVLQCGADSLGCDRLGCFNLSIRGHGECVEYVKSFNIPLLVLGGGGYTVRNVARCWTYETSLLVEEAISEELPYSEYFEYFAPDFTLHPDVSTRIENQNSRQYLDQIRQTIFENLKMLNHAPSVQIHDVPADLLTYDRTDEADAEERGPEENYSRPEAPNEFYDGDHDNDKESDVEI

HDAC3 [3] = target: T3, HDAC3; assay: fluorometric HDAC activity assay, […]; assay type: biochemical; remark: listed apart in the source
HDAC2 [4] = target: T2, HDAC2; assay: fluorometric HDAC activity assay, […]; assay type: biochemical; remark: listed apart in the source

Row | Structure (SMILES) | fluorometric HDAC activity assay, 0.5 or 5 uM (HDAC8) | Kd (HDAC1) [nM] | fluorometric HDAC activity assay, 0.5 or 5 uM (HDAC2 [1]) | fluorometric HDAC activity assay, 0.5 or 5 uM (HDAC3 [2]) | fluorometric HDAC activity assay, 5 uM (HDAC3 [3]) | fluorometric HDAC activity assay, 5 uM (HDAC2 [4])
1 | CCCCCCCCc1ccc(CC[C@](N)(CO)COP(=O)(O)O)cc1 [FTY720-P] | FTY720-P inhibited the activities of highly purified recombinant class I HDACs (HDAC1, HDAC2, HDAC3 and HDAC8) | 6.2 | FTY720-P inhibited the activities of highly purified recombinant class I HDACs (HDAC1, HDAC2, HDAC3 and HDAC8) | FTY720-P inhibited the activities of highly purified recombinant class I HDACs (HDAC1, HDAC2, HDAC3 and HDAC8) | – | –
2 | CCCCCCCCCCCCC/C=C/[C@@H](O)[C@@H](N)COP(=O)(O)O [S1P] | – | – | – | – | Even though S1P inhibited HDAC1–HDAC3, it did not inhibit HDAC8 activity | Even though S1P inhibited HDAC1–HDAC3, it did not inhibit HDAC8 activity

From PMC4256678 (Nature neuroscience, 2014)
